# According to patent publication US10131670B2, “Bicyclic heteroaryl derivatives as CFTR potentiators” (CYSTIC FIBROSIS FOUNDATION THERAPEUTICS, INC., priority 2016, dated 2018):
# Legend:
# [1] = biological target: CFTR (Homo sapiens, UniProt P13569); assay: Ussing Chamber Electrophysiology Assay of CFTR Potentiation in CF Bronchial Epithelial Cells; format: cell-based; conditions: primary CF hBE cells, short-circuit current, scaled to DMSO (0%) and positive control potentiator (100%)
# Excerpt: Ussing Chamber Electrophysiology Assay of CFTR Potentiation in CF Bronchial Epithelial Cells
# Primary cystic fibrosis human bronchial epithelial (CF hBE) cells were expanded and cultured according to published methods (Neuberger et al., Ch. 4 of Cystic Fibrosis, Methods in Molecular Biology vol. 741, pp. 39-54 (2011)). Well-differentiated cells (>30 days at air/liquid interface) on Snapwell filters (Corning Costar, cat. no. 3801) were mounted in Ussing chambers (Physiologic Instruments, Inc., San Diego, Calif.). F508del/F508del cultures were assayed at 27° C. and G551D/F508del cells were assayed at 35° C. HEPES buffered physiological saline (composition (in mM): 137 NaCl, 4 KCl, 1 MgCl2, 1.8 CaCl2, 10 HEPES Na) was used in both apical and basolateral chambers. Chambers were bubbled with air to promote mixing and the voltage was clamped to zero. Amiloride (30 uM), forskolin (10 uM), test compound (4 increasing concentrations), and CFTRinh-172 (20 uM) were added sequentially with 20-25 minutes between additions. Short-circuit currents were acquired and analyzed using LabScribe2. Test compound responses were scaled relative to responses for DMSO (0%) and the maximal response of a positive control potentiator (100%).
# [2] = biological target: F508del V470 CFTR (Homo sapiens, UniProt P13569, DEL508-508); assay: FRT Ion Flux Assay of F508del CFTR Potentiation; format: cell-based; conditions: FRT cells expressing F508del V470 CFTR and halide-sensitive YFP, forskolin 20 uM, 30 min
# Experimental: FRT Ion Flux Assay of F508del CFTR Potentiation
# Fischer rat thyroid (FRT) cell lines stably expressing recombinant F508del V470 CFTR and halide-sensitive yellow fluorescent protein (Pedemonte et al., J. Clin. Invest. 115(9) 2564-71 (2005)) were seeded at 25,000 cells/well in 50 uL/well of culture medium into black-walled, clear bottom tissue-culture-treated 384-well plates (Corning, cat. no. 3712). After one day, the cells were pre-incubated at 27° C./5% CO2 for 16-24 hours. The cells were then washed with dPBS and treated with forskolin (20 uM) and test compound for 30 min by addition of 20 uL of compound dilution buffer (dPBS containing forskolin and test compound). Plates were loaded into FLIPR384 fluorescence imaging plate reader (Molecular Devices). After an initial fluorescence reading, iodide buffer (25 uL) (composition (in mM): 137 NaI, 1.5 K2PO4, 8.1 NaH2PO4, 2.7 KCl, 0.5 MgCl2, 1 CaCl2) was added and a second fluorescence reading was made after approximately 21 seconds. Data treatment involved division of the second fluorescence reading by the initial fluorescence reading, then scaling of the resulting normalized endpoint fluorescence with respect to the responses for DMSO (0%) and a positive control potentiator (100%).
# Chain of F508del V470 CFTR (P13569 with tags, fused parts or gaps DEL508-508): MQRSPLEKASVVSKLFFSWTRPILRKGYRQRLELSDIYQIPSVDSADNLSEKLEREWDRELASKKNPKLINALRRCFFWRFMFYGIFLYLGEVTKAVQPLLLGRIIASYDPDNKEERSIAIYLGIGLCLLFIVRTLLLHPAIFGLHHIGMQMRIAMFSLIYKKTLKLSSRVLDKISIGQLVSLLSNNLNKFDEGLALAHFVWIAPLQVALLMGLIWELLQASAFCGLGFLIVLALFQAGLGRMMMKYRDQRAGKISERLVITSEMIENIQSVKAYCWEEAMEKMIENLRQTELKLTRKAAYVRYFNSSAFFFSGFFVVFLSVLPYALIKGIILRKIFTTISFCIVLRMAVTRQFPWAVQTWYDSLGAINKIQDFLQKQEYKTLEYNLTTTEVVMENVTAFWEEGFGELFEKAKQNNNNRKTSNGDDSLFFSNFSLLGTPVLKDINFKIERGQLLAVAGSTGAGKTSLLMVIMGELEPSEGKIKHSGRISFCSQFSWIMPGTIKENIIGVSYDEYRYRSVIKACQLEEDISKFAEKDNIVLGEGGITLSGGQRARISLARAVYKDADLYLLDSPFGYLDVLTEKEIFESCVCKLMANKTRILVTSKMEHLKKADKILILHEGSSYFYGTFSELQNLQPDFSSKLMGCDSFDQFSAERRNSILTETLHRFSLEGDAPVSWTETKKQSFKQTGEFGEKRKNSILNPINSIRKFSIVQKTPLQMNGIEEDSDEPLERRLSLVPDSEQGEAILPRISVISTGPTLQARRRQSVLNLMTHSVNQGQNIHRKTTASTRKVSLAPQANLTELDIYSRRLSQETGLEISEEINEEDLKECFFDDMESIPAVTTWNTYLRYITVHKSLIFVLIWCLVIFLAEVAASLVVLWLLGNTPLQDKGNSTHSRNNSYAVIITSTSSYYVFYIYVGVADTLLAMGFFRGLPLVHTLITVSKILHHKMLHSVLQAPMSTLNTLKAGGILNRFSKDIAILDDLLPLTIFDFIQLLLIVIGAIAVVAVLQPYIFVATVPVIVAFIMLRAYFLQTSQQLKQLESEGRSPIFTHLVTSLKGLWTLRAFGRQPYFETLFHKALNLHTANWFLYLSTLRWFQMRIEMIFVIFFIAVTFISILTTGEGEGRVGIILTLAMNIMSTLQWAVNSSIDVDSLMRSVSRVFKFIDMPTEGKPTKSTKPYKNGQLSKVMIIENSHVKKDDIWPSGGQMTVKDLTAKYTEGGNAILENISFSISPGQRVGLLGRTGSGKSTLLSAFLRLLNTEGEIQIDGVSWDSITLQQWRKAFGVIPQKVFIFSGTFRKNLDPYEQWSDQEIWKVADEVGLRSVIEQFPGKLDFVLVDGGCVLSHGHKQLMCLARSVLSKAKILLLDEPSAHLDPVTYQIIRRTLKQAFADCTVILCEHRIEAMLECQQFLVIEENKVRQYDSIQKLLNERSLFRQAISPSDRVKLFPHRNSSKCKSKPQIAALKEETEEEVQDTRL
Structure (SMILES),EC50 [1],EC50 [2]
"CCC(c1cn(-c2ccc(F)cc2F)nn1)n1nc(-c2cnc(C(F)(F)F)nc2)c2c(N)ncnc21 (single isomer, unassigned) [Example 99, 1-{1-[1-(2,4-difluorophenyl)-1H-1,2,3-triazol-4-yl]propyl}-3-[2-(trifluoromethyl)pyrimidin-5-yl]-1H-pyrazolo[3,4-d]pyrimidin-4-amine]",29.2 nM,37.2 nM
"CC(c1cn(-c2ccc(F)cc2F)nn1)c1c(C#N)c(-c2cnc(C(F)(F)F)nc2)c2c(N)ncnn12 (single isomer, unassigned) [Example 3, 4-amino-7-{1-[1-(2,4-difluorophenyl)-1H-1,2,3-triazol-4-yl]ethyl}-5-[2-(trifluoromethyl)pyrimidin-5-yl]pyrrolo[2,1-f][1,2,4]triazine-6-carbonitrile]",14.6 nM,10.6 nM
"CC(c1cn(-c2ccccc2F)nn1)c1cc(-c2cnc(C(F)(F)F)nc2)c2c(N)ncnn12 (single isomer, unassigned) [Example 54, 7-{1-[1-(2-fluorophenyl)-1H-1,2,3-triazol-4-yl]ethyl}-5-[2-(trifluoromethyl)pyrimidin-5-yl]pyrrolo[2,1-f][1,2,4]triazin-4-amine]",6.48 nM,7.4 nM
"CCC(c1cnn(-c2ccc(F)cc2F)c1)c1c(C#N)c(-c2cnc(C(F)(F)F)nc2)c2c(N)ncnn12 (single isomer, unassigned) [Example 17, 4-amino-7-{1-[1-(2,4-difluorophenyl)-1H-pyrazol-4-yl]propyl}-5-[2-(trifluoromethyl)pyrimidin-5-yl]pyrrolo[2,1-f][1,2,4]triazine-6-carbonitrile]",3 nM,13.3 nM
"CC(c1cc(-c2ccccc2F)no1)c1c(C#N)c(-c2cnc(C(F)(F)F)nc2)c2c(N)ncnn12 (single isomer, unassigned) [Example 19, 4-amino-7-{1-[3-(2-fluorophenyl)-1,2-oxazol-5-yl]ethyl}-5-[2-(trifluoromethyl)pyrimidin-5-yl]pyrrolo[2,1-f][1,2,4]triazine-6-carbonitrile]",5 nM,13.8 nM
"CC(c1cnn(-c2ccccc2F)c1)c1c(C#N)c(-c2cnc(C(F)(F)F)nc2)c2c(N)ncnn12 (single isomer, unassigned) [Example 12, 4-amino-7-{1-[1-(2-fluorophenyl)-1H-pyrazol-4-yl]ethyl}-5-[2-(trifluoromethyl)pyrimidin-5-yl]pyrrolo[2,1-f][1,2,4]triazine-6-carbonitrile]",4 nM,12.5 nM
"N#Cc1c(-c2cnc(C(F)(F)F)nc2)c2c(N)ncnn2c1Cc1cnn(-c2ccccc2F)c1 [Example 30, 4-amino-7-{[1-(2-fluorophenyl)-1H-pyrazol-4-yl]methyl}-5-[2-(trifluoromethyl)pyrimidin-5-yl]pyrrolo[2,1-f][1,2,4]triazine-6-carbonitrile]",0.86 nM,0.57 nM
"CC(c1cnn(-c2ccc(F)cc2F)c1)c1c(C#N)c(-c2cnc(C(F)(F)F)nc2)c2c(N)ncnn12 (single isomer, unassigned) [Example 20, 4-amino-7-{1-[1-(2,4-difluorophenyl)-1H-pyrazol-4-yl]ethyl}-5-[2-(trifluoromethyl)pyrimidin-5-yl]pyrrolo[2,1-f][1,2,4]triazine-6-carbonitrile]",8.94 nM,30 nM
"CCC(c1cn(-c2ccc(F)c(F)c2)nn1)c1cc(-c2cnc(C(F)(F)F)nc2)c2c(N)ncnn12 (single isomer, unassigned) [Example 63, 7-{1-[1-(3,4-difluorophenyl)-1H-1,2,3-triazol-4-yl]propyl}-5-[2-(trifluoromethyl)pyrimidin-5-yl]pyrrolo[2,1-f][1,2,4]triazin-4-amine]",19.3 nM,29.6 nM
"CCC(c1cn(-c2ccccc2F)nn1)c1cc(-c2cnc(C(F)(F)F)nc2)c2c(N)ncnn12 (single isomer, unassigned) [Example 57, 7-{1-[1-(2-fluorophenyl)-1H-1,2,3-triazol-4-yl]propyl}-5-[2-(trifluoromethyl)pyrimidin-5-yl]pyrrolo[2,1-f][1,2,4]triazin-4-amine]",2 nM,1.88 nM
